Data taken from patent US9204649B2 (priority 2011, dated 2015).

What was measured:
[1] = log P (pH 2.7) given with the preparation examples; assay type: physicochemical; details: for logP: pH 2.7, pH 2.7
[2] = system: Phytophthora infestans; assay type: in vivo; details: tomato young plants, protective spray, active ingredient concentration 10 ppm, evaluation 3 days after inoculation; 0% = control, 100% = no infection
[3] = physchem

Row | Compound | log P (pH 2.7) ([1]; pH 2.7) | logP [1] | Eff (efficacy) [2] [%] | chromatographic logP ([3]; pH 2.3) | chromatographic logP ([3]; pH 7.8) | logP ([1]; reversed-phase HPLC column (C18))
1 | CC(C)(C)OC(=O)N1CCC(c2nc(C=NO)cs2)CC1 [A, tert-Butyl 4-{4-[(hydroxyimino)methyl]-1,3-thiazol-2-yl}piperidine-1-carboxylate] | 2.38 | 2.25 | – | – | – | –
2 | CCOC(=O)C1CC(c2csc(C3CCN(C(=O)OC(C)(C)C)CC3)n2)=NO1 (stereo not drawn) [B, tert-Butyl 4-{4-[5-(ethoxycarbonyl)-4,5-dihydro-1,2-oxazol-3-yl]-1,3-thiazol-2-yl}piperidine-1-carboxylate] | – | 3.14 | – | – | – | –
3 | O=C(O)C1CC(c2csc(C3CCN(C(=O)Cn4nc(C(F)F)cc4C(F)F)CC3)n2)=NO1 (stereo not drawn) [D, 3-[2-(1-{[3,5-Bis(difluoromethyl)-1H-pyrazol-1-yl]acetyl}piperidin-4-yl)-1,3-thiazol-4-yl]-4,5-dihydro-1,2-oxazole-5-carboxylic acid] | – | 1.77 | – | – | – | –
4 | COC(=O)C1CC(c2csc(C3CCN(C(=O)Cn4nc(C(F)F)cc4C(F)F)CC3)n2)=NO1 (stereo not drawn) [Example I-1, methyl 3-[2-(1-{[3,5-bis(difluoromethyl)-1H-pyrazol-1-yl]acetyl}piperidin-4-yl)-1,3-thiazol-4-yl]-4,5-dihydro-1,2-oxazole-5-carboxylate] | – | 2.26 | 75 | 2.28 | 2.28 | –
5 | O=C(OC1CCCCC1Cl)C1CC(c2csc(C3CCN(C(=O)Cn4nc(C(F)F)cc4C(F)F)CC3)n2)=NO1 (stereo not drawn) [Example I-5, 2-Chlorocyclohexyl 3-[2-(1-{[3,5-bis(difluoromethyl)-1H-pyrazol-1-yl]acetyl}piperidin-4-yl)-1,3-thiazol-4-yl]-4,5-dihydro-1,2-oxazole-5-carboxylate] | – | – | 93 | 3.42 | 3.5 | 3.43
